Laboratory results: patent US20160039767A1, “PYRAZOLE DERIVATIVES AS PRMT1 INHIBITORS AND USES THEREOF” (EPIZYME, INC., priority 2013, published 2016)
Where two headings read alike, the source gives them in different places.

Assays:
PRMT1 = biological target: T1, PRMT1 (Homo sapiens, UniProt Q99873); assay: PRMT1 Biochemical Assay (3H-SAM Flashplate, histone H4 peptide substrate); details: Biochemical IC50 (Numerical, μM) PRMT1, single experiment or average of multiple experiments, Table 2a
T1 construct: GST-tagged PRMT1; made in house; host or cells: High Five insect cells (baculovirus, pFastBacI)
Text: S-adenosylmethionine (SAM), S-adenosylhomocysteine (SAH), bicine, Tween20, dimethylsulfoxide (DMSO), bovine skin gelatin (BSG), and Tris(2-carboxyethyl)phosphine hydrochloride solution (TCEP) were purchased from Sigma-Aldrich at the highest level of purity possible. ^3H-SAM was purchase from American Radiolabeled Chemicals with a specific activity of 80 Ci/mmol. 384-well streptavidin Flashplates were purchased from PerkinElmer.
Recombinant baculovirus were generated according to Bac-to-Bac kit instructions (Life Technologies). Protein over-expression was accomplished by infecting exponentially growing High Five insect cell culture at 1.5×10^6 cell/ml with 1:100 ratio of virus. Infections were carried out at 27° C. for 48 hours, harvested by centrifugation, and stored at −80° C. for purification.
GST-tagged PRMT1 was eluted with 50 mM Tris, 2 mM glutathione, pH 7.8, dialysed in buffer A and concentrated to 1 mg/mL.
General Procedure for PRMT1 Enzyme Assays on Peptide Substrates.
The assays were all performed in a buffer consisting of 20 mM Bicine (pH=7.6), 1 mM TCEP, 0.005% BSG, and 0.002% Tween 20, prepared on the day of use. […] DMSO (1 ul) was added to Columns 11, 12, 23, 24, rows A-H for the maximum signal control and 1 ul of SAH, a known product and inhibitor of PRMT1, was added to columns 11, 12, 23, 24, rows I-P for the minimum signal control. A cocktail (40 ul) containing the PRMT1 enzyme was added by Multidrop Combi (Thermo-Fisher). The compounds were allowed to incubate with PRMT1 for 30 min at room temperature, then a cocktail (10 ul) containing SAM and peptide was added to initiate the reaction (final volume=51 ul). […] The assays were stopped by the addition of non-radiolabeled SAM (10 ul) to a final concentration of 300 uM, which dilutes the ^3H-SAM to a level where its incorporation into the peptide substrate is no longer detectable. […] The plates were then read in a PerkinElmer TopCount plate reader to measure the quantity of ^3H-labeled peptide bound to the Flashplate surface, measured as disintegrations per minute (dpm) or alternatively, referred to as counts per minute (cpm).
Where dpm=disintegrations per minute, cmpd=signal in assay well, and min and max are the respective minimum and maximum signal controls.
Where top and bottom are the normally allowed to float, but may be fixed at 100 or 0 respectively in a 3-parameter fit. The Hill Coefficient normally allowed to float but may also be fixed at 1 in a 3-parameter fit. Y is the % inhibition and X is the compound concentration.

RKO cells = assay: RKO Methylation Assay (In Cell Western for mono-methyl arginine and DNA content); type: cell-based; details: Homo sapiens
Text: RKO adherent cells were purchased from ATCC (American Type Culture Collection), Manassas, Va., USA. DMEM/Glutamax medium, penicillin-streptomycin, heat inactivated fetal bovine serum, 0.05% trypsin and D-PBS were purchased from Life Technologies, Grand Island, N.Y., USA. Odyssey blocking buffer, 800CW goat anti-rabbit IgG (H+L) antibody, and Licor Odyssey infrared scanner were purchased from Licor Biosciences, Lincoln, Nebr., USA. Mono-methyl arginine antibody was purchased from Cell Signaling Technology, Danvers, Mass., USA. Methanol was purchased from VWR, Franklin, Mass., USA. 10% Tween 20 was purchased from KPL, Inc., Gaithersburg, Md., USA. DRAQ5 was purchased from Biostatus Limited, Leicestershire, UK.
RKO adherent cells were maintained in growth medium (DMEM/Glutamax medium supplemented with 10% v/v heat inactivated fetal bovine serum and 100 units/mL penicillin-streptomycin) and cultured at 37° C. under 5% CO2.
Cell Treatment, in Cell Western (ICW) for Detection of Mono-Methyl Arginine and DNA Content.
Compound (100 nL) from a 96-well source plate was added directly to 384 well cell plate. Plates were incubated at 37° C., 5% CO2 for 72 hours. After three days of incubation, plates were brought to room temperature outside of the incubator for ten minutes and blotted on paper towels to remove cell media. 50 μL of ice cold 100% methanol was added directly to each well and incubated for 30 min at room temperature. After 30 min, plates were transferred to a Biotek EL406 plate washer and washed 2 times with 100 μL per well of wash buffer (1×PBS). Next 60 μL per well of Odyssey blocking buffer (Odyssey Buffer with 0.1% Tween 20 (v/v)) were added to each plate and incubated 1 hour at room temperature. Blocking buffer was removed and 20 μL per well of primary antibody was added (mono-methyl arginine diluted 1:200 in Odyssey buffer with 0.1% Tween 20 (v/v)) and plates were incubated overnight (16 hours) at 4° C. Plates were washed 5 times with 100 µL per well of wash buffer. Next 20 μL per well of secondary antibody was added (1:200 800CW goat anti-rabbit IgG (H+L) antibody, 1:1000 DRAQ5 (Biostatus limited) in Odyssey buffer with 0.1% Tween 20 (v/v)) and incubated for 1 hour at room temperature. The plates were washed 5 times with 100 μL per well wash buffer then 2 times with 100 μL per well of water. Plates were allowed to dry at room temperature then imaged on the Licor Odyssey machine which measures integrated intensity at 700 nm and 800 nm wavelengths. Both 700 and 800 channels were scanned.
First, the ratio for each well was determined by:
Each plate included fourteen control wells of DMSO only treatment (minimum activation) as well as fourteen control wells for maximum activation treated with 20 μM of a reference compound. The average of the ratio values for each control type was calculated and used to determine the percent activation for each test well in the plate. Reference compound was serially diluted three-fold in DMSO for a total of nine test concentrations, beginning at 20 μM. Percent activation was determined and EC30 curves were generated using triplicate wells per concentration of compound.

[1] = RKO cells, 72 hours, mono-methyl arginine, class symbols, Table 3, read-out: In Cell Western data EC30
[2] = RKO cells, 72 hours, mono-methyl arginine, single experiment or average of multiple experiments, Table 3a, read-out: In Cell Western data (Numerical, μM) EC30
[3] = RKO, 72 h, read-out: In Cell Western data (Numerical, μM) EC30
[4] = RKO, 72 h, read-out: In Cell Western data EC30

T1 sequence (Q99873 with tags, fused parts or gaps): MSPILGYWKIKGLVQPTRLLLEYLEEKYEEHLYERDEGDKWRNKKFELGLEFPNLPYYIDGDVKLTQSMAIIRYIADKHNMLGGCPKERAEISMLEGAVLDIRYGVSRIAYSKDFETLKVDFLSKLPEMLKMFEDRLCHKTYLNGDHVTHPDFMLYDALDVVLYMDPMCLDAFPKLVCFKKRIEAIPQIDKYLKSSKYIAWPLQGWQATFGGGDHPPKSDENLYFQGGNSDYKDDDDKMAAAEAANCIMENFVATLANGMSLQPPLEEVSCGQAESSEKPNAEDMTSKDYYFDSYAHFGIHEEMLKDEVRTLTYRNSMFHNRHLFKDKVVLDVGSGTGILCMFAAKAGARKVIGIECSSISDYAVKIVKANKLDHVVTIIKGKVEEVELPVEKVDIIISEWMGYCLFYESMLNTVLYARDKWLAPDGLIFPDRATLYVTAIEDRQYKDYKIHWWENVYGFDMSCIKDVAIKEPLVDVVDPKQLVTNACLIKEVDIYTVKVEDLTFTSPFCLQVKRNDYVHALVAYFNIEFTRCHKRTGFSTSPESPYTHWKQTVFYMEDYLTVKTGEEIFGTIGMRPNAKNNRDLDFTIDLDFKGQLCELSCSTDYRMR

| SMILES | IC50 (PRMT1) [µM] | EC30 (RKO cells; [1]) [µM] | EC30 (RKO cells; [2]) [µM] | EC30 (RKO cells; [3]) [µM] | EC30 (RKO cells; [4]) [µM] |
| --- | --- | --- | --- | --- | --- |
| CNCCN(C)Cc1c[nH]nc1-c1cc(Oc2ccccc2)cc(C(F)(F)F)c1 [Compound 36] | 0.0123 | < 3 | 2.18 |  |  |
| CCCOc1cc(-c2n[nH]cc2CN(C)CCNC)cc(C(F)(F)F)c1 [Compound 19] | 0.0275 | 3.01 to 12 | 5.07 |  |  |
| CC(C)Oc1ccc(-c2n[nH]cc2CN(C)CCN)cc1C(F)(F)F [Compound 5] | 0.00445 |  |  | 0.305 | < 3 |
| CNCCN(C)Cc1c[nH]nc1-c1cc(OCC2CCC2)cc(C(F)(F)F)c1 [Compound 44] | 0.0132 |  |  | 4.52 | 3.01 to 12 |
| CNCCN(C)Cc1c[nH]nc1-c1cc(C)c(OC2CCOCC2)c(C(F)(F)F)c1 [Compound 59] | 0.0316 |  |  | 1.37 | < 3 |
| CNCCN(C)Cc1c[nH]nc1-c1cc(OCc2ccccc2)cc(C(F)(F)F)c1 [Compound 37] | 0.0185 | 3.01 to 12 | 5 |  |  |
| CNCCN(C)Cc1c[nH]nc1-c1cc(OCCOC)cc(C(F)(F)F)c1 [Compound 16] | 0.0204 | < 3 | 2.24 |  |  |
| CNCCN(C)Cc1c[nH]nc1-c1ccc(OCCOC)c(C(F)(F)F)c1 [Compound 14] | 0.00554 |  |  | 0.383 | < 3 |
| CNCCN(C)Cc1c[nH]nc1-c1cc(C)c(OCC2CCOCC2)c(C(F)(F)F)c1 [Compound 65] | 0.0471 |  |  | 1.45 | < 3 |
| CNCCN(C)Cc1c[nH]nc1-c1cc(Oc2ccccn2)cc(C(F)(F)F)c1 [Compound 52] | 0.0359 | 3.01 to 12 | 4.44 |  |  |
| CCC(CC)Oc1cc(-c2n[nH]cc2CN(C)CCNC)cc(C(F)(F)F)c1 [Compound 47] | 0.0135 | < 3 | 2.67 |  |  |
| CNCCN(C)Cc1n[nH]cc1-c1cc(OCCOC)cc(C(F)(F)F)c1 [Compound 30] | 0.109 | 3.01 to 12 | 13.1 |  |  |
| CN(CCN)Cc1c[nH]nc1-c1ccc(Oc2ccccc2)c(C(F)(F)F)c1 [Compound 23] | 0.00301 |  |  | 1.51 | < 3 |
| CNCCN(C)Cc1n[nH]cc1-c1ccc(OCCOC)c(C(F)(F)F)c1 [Compound 21] | 0.0328 | < 3 | 0.812 |  |  |
| CNCCN(C)Cc1c[nH]nc1-c1cc(OCCCOC)cc(C(F)(F)F)c1 [Compound 24] | 0.0229 | 3.01 to 12 | 4.02 |  |  |
| CNCCN(C)Cc1c[nH]nc1-c1cc(OCCCC(C)=O)cc(C(F)(F)F)c1 [Compound 49] | 0.0366 | 3.01 to 12 | 3.36 |  |  |
| CNCCN(C)Cc1c[nH]nc1-c1cc(Cl)c(OCC2CCC2)c(C(F)(F)F)c1 [Compound 35] | 0.00431 |  |  | 0.694 | < 3 |
| CNCCN(C)Cc1c[nH]nc1-c1cc(OCCC(C)C)cc(C(F)(F)F)c1 [Compound 12] | 0.00704 | < 3 | 1.44 |  |  |
| CNCCN(C)Cc1c[nH]nc1-c1ccc(CC(C)C)c(C(F)(F)F)c1 [Compound 34] | 0.00444 |  |  | 0.955 | < 3 |
| CNCCN(C)Cc1c[nH]nc1-c1cc(OCC2CCOCC2)cc(C(F)(F)F)c1 [Compound 46] | 0.0282 |  |  | 2.62 | < 3 |
